The data set can be described thus: method code SF-AS, from DOI: 10.1248/cpb.39.1736, PMID: 1777927.

Usually logP stands for the decadic logarithm of the partition coefficient of the neutral form, usually between octanol and water. Low readings indicate a more hydrophilic compound, high ones a more lipophilic compound. For `CCCCOC(=O)/C=C/c1ccc(O)c(O)c1`, the log partition coefficient (logP) was 3.53. For `CCOc1ccc2cc(O)c(O)cc2c1` the value was 2.7. The result for `CCCC(=O)C=Cc1ccc(O)c(O)c1` reads 2.61; that for `CCCCCC(O)c1ccc(O)c(O)c1` (stereo not drawn), 2.32. The result for `O=C(/C=C/c1ccc(O)c(O)c1)NCc1ccccc1` reads 2.48.

`O=C(/C=C/c1ccc(O)c(O)c1)CCCCCO` had a logP of 1.67.

`COc1ccc(CCNC(=O)/C=C/c2ccc(O)c(O)c2)cc1OC` showed a logP of 2.07. Turning to `CCCCC=Cc1ccc(O)c(O)c1`, the lipophilicity (logP) amounted to 3.82. The compound `COc1ccc(NC(=O)/C=C/c2ccc(O)c(O)c2)cc1OC` came in with a lipophilicity (logP) of 2.3. On to `COc1ccc(CNC(=O)C=Cc2ccc(O)c(O)c2)cc1OC`, for which the log partition coefficient (logP) is 1.99. `CCCCCCNC(=O)/C=C/Oc1ccc(O)c(O)c1` gave a logP of 3.36.

Consider `CCCCNC(=O)c1ccc2cc(O)c(O)cc2c1`, for which the logP came to 2.72. The result for `CCc1ccc2cc(O)c(O)cc2c1` reads 3.25. The result for `CCCCCCNC(=O)C=Cc1ccc(O)c(O)c1` reads 3.37; that for `CC(=O)c1ccc2cc(O)c(O)cc2c1`, 2.32. `CCCCCCNC(=O)c1ccc(O)c(O)c1` showed a lipophilicity (logP) of 2.71.

With `O=C(/C=C/c1ccc(O)c(O)c1)NCCc1ccccc1`, the lipophilicity (logP) was 2.72. Turning to `CCCCc1ccc(O)c(O)c1`, the log partition coefficient (logP) came to 2.96.
